Measured values as given in ChEMBL document CHEMBL4334471, “Discovery of 1,8-disubstituted-[1,2,3]triazolo[4,5-c]quinoline derivatives as a new class of Hippo signaling pathway inhibitors” (Bioorg Med Chem Lett, 2019).

Assays:
[1] = biological target: Ephrin type-A receptor 3 (Homo sapiens) (UniProt P29320); experiment: Inhibition of recombinant human EphA3 (578 to end residues) assessed as residual activity at 10 uM using poly(Glu, Tyr) 4:1 as substrate at 40 mins in presence of [gamma-33ATP] by scintillation counting based radiometry assay relative to control
[2] = tested on: Eukaryotic elongation factor 2 kinase (Homo sapiens), O00418 [H23R]; experiment: Inhibition of recombinant human eEF-2K H23R mutant (2 to end residues) assessed as residual activity at 10 uM using RKKFGESEKTKTK as substrate at 40 mins in presence of [gamma-33ATP] by scintillation counting based radiometry assay relative to control
[3] = biological target: Protein kinase C iota type (Homo sapiens) (UniProt P41743); experiment: Inhibition of recombinant full-length human PKCiota assessed as residual activity at 10 uM using ERMRPRKRQGSVRRRV as substrate incubated for 40 mins in presence of [gamma33P]ATP by scintillation counting based radiometry assay relative to control
Sequence of Protein kinase C iota type (Homo sapiens) (P41743 whole entry, the tested form may be a part): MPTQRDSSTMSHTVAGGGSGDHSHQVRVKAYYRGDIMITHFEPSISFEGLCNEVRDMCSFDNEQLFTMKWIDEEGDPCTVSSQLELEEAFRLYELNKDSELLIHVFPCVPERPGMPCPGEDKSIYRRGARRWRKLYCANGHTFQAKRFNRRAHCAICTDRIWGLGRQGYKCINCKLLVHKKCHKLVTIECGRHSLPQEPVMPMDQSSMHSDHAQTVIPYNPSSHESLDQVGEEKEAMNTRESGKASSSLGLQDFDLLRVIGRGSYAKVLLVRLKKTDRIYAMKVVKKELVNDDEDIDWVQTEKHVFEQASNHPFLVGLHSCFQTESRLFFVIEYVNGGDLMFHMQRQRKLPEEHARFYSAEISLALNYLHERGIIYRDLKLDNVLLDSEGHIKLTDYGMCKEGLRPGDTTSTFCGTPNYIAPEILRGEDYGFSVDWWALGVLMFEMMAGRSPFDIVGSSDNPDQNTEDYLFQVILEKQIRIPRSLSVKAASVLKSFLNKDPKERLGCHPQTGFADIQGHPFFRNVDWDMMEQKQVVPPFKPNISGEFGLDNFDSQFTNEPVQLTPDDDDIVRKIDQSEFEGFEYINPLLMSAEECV

[4] = biological target: Fibroblast growth factor receptor 3 (Homo sapiens) (UniProt P22607); experiment: Inhibition of recombinant human FGFR3 (447 to 761 residues) assessed as residual activity at 10 uM using poly(Glu, Tyr) 4:1 as substrate at 40 mins in presence of [gamma-33ATP] by scintillation counting based radiometry assay relative to control
[5] = biological target: Dual specificity mitogen-activated protein kinase kinase 3 (Homo sapiens) (UniProt P46734); experiment: Inhibition of recombinant human MKK3 assessed as residual activity at 10 uM by scintillation counting based radiometry assay relative to control
Sequence of Dual specificity mitogen-activated protein kinase kinase 3 (Homo sapiens) (P46734 whole entry): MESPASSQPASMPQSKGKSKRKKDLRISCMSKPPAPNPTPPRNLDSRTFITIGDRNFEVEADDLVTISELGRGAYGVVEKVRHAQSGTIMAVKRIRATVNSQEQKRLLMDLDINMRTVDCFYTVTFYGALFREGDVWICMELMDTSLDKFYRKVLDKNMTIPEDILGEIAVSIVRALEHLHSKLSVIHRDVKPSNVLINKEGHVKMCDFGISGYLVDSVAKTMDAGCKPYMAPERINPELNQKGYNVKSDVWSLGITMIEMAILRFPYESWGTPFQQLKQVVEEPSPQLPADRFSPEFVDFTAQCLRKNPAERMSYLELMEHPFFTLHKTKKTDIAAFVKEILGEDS

[6] = biological target: Tyrosine-protein kinase ZAP-70 (Homo sapiens) (UniProt P43403); experiment: Inhibition of recombinant full length human ZAP70 assessed as residual activity at 10 uM using poly(Glu, Tyr) 4:1 as substrate incubated for 40 mins in presence of [gamma33P]ATP by scintillation counting based radiometry assay relative to control
[7] = biological target: Serine/threonine-protein kinase ULK2 (Homo sapiens) (UniProt Q8IYT8); experiment: Inhibition of recombinant human ULK2 (1 to 306 residues) assessed as residual activity at 10 uM using casein as substrate incubated for 40 mins in presence of [gamma33P]ATP by scintillation counting based radiometry assay relative to control
Sequence of Serine/threonine-protein kinase ULK2 (Homo sapiens) (Q8IYT8 whole entry, the tested form may be a part): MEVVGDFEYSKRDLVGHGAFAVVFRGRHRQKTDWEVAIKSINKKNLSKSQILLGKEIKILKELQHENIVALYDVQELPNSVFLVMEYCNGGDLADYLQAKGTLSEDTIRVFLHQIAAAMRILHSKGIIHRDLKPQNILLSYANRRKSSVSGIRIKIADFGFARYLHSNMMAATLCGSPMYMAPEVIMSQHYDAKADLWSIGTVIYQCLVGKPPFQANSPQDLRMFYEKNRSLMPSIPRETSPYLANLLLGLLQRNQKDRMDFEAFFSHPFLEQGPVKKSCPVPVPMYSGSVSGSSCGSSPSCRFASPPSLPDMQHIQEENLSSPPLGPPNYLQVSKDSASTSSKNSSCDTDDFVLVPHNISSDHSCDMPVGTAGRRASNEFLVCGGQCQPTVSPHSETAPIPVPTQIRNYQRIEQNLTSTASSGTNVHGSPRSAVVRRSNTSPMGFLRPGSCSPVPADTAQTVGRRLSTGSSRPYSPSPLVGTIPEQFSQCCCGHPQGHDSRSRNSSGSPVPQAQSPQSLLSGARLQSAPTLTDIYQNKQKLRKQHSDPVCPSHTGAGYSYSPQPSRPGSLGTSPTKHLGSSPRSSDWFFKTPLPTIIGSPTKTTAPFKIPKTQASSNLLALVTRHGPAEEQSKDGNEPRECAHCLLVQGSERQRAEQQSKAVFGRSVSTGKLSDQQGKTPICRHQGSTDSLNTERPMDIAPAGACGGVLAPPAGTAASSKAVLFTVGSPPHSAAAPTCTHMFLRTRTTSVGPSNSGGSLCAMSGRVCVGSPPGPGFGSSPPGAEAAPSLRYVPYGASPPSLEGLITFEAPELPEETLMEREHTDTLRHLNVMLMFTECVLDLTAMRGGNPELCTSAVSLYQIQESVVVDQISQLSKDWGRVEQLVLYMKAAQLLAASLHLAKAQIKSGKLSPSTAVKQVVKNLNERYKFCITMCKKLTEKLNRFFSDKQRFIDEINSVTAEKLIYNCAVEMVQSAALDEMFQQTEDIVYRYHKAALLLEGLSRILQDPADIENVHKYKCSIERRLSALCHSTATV

[8] = biological target: Activin receptor type-1B (Homo sapiens) (UniProt P36896); experiment: Inhibition of human ALK4 (150 to end residues) assessed as residual activity at 10 uM using casein as substrate incubated for 40 mins in presence of [gamma-33ATP] by scintillation counting based radiometry assay relative to control
[9] = biological target: Dual specificity mitogen-activated protein kinase kinase 4 (Mus musculus) (UniProt P47809); experiment: Inhibition of recombinant mouse MKK4 (34 to end residues) assessed as residual activity at 10 uM using poly(Glu, Tyr) 4:1 as substrate incubated for 40 mins in presence of [gamma-33ATP] by scintillation counting based radiometry assay relative to control
[10] = biological target: Myosin light chain kinase, smooth muscle (Homo sapiens) (UniProt Q15746); experiment: Inhibition of recombinant human MLCK (1425 to 1771 residues) assessed as residual activity at 10 uM using […] incubated for 40 mins in presence of [gamma-33ATP by scintillation counting based radiometry assay relative to control
[11] = biological target: Bone morphogenetic protein receptor type-1B (Homo sapiens) (UniProt O00238); experiment: Inhibition of human ALK6 (148 to end residues) assessed as residual activity at 10 uM using casein as substrate incubated for 40 mins in presence of [gamma-33ATP] by scintillation counting based radiometry assay relative to control
Sequence of Bone morphogenetic protein receptor type-1B (Homo sapiens) (O00238 whole entry): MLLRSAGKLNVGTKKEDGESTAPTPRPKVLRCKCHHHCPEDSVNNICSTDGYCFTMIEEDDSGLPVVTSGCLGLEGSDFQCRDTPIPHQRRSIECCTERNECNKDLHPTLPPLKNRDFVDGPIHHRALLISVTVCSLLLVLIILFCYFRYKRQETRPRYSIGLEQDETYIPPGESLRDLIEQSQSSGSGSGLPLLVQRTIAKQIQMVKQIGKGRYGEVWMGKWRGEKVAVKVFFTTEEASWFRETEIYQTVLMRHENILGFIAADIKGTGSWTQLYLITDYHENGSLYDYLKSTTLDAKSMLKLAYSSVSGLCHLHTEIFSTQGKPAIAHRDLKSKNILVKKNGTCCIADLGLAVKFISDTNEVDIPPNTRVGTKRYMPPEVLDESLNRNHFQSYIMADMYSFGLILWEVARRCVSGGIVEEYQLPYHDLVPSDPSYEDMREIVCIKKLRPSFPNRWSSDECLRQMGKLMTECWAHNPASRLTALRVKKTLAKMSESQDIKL

[12] = tested on: PI3-kinase p110-alpha/p85-alpha (Homo sapiens), P27986+P42336 [E542K]; experiment: Inhibition of recombinant full-length human PI3K p110/p85 E542K mutant assessed as residual activity at 10 uM using phosphatidylinositol-4, 5-bisphosphate as substrate incubated for 40 mins in presence of [gamma33P]ATP by scintillation counting based radiometry assay relative to control
[13] = biological target: Dual specificity protein kinase CLK4 (Homo sapiens) (UniProt Q9HAZ1); experiment: Inhibition of recombinant human CLK4 (128 to end residues) assessed as residual activity at 10 uM using YRRAAVPPSPSLSRHSSPHQS(p)EDEEE as substrate incubated 40 mins in presence of [gamma-33ATP] by scintillation counting based radiometry assay relative to control
Sequence of Dual specificity protein kinase CLK4 (Homo sapiens) (Q9HAZ1 whole entry, looked up): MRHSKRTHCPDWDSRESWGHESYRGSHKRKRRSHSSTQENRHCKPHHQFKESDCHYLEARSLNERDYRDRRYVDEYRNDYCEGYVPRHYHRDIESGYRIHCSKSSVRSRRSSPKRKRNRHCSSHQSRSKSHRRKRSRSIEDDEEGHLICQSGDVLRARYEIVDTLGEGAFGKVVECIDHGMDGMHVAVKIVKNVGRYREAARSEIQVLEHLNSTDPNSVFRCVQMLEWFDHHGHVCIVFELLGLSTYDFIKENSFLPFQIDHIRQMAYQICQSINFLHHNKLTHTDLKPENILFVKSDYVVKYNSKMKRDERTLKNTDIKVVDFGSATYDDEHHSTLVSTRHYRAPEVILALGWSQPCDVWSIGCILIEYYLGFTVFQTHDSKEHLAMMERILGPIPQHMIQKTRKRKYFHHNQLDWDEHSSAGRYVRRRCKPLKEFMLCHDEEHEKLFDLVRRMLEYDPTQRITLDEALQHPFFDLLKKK

[14] = biological target: Serine/threonine-protein kinase 16 (Homo sapiens) (UniProt O75716); experiment: Inhibition of human STK16 assessed as residual activity at 10 uM in presence of [gamma33P]ATP by scintillation counting based radiometry assay relative to control
Sequence of Serine/threonine-protein kinase 16 (Homo sapiens) (O75716 whole entry): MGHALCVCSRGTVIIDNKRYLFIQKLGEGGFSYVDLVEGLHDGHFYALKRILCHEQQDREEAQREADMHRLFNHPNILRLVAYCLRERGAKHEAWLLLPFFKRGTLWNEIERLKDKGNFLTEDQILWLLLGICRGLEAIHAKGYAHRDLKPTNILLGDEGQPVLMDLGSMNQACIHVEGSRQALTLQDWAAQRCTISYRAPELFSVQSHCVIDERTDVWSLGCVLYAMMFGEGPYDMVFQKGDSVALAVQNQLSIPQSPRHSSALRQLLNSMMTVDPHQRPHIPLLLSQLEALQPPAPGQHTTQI

[15] = biological target: Tyrosine-protein kinase BTK (Homo sapiens) (UniProt Q06187); experiment: Inhibition of recombinant full length human BTK assessed as residual activity at 10 uM using KVEKIGEGTYGVVYK substrate incubated for 40 mins in presence of [gamma-33ATP] by scintillation counting based radiometry assay relative to control
Sequence of Tyrosine-protein kinase BTK (Homo sapiens) (Q06187 whole entry): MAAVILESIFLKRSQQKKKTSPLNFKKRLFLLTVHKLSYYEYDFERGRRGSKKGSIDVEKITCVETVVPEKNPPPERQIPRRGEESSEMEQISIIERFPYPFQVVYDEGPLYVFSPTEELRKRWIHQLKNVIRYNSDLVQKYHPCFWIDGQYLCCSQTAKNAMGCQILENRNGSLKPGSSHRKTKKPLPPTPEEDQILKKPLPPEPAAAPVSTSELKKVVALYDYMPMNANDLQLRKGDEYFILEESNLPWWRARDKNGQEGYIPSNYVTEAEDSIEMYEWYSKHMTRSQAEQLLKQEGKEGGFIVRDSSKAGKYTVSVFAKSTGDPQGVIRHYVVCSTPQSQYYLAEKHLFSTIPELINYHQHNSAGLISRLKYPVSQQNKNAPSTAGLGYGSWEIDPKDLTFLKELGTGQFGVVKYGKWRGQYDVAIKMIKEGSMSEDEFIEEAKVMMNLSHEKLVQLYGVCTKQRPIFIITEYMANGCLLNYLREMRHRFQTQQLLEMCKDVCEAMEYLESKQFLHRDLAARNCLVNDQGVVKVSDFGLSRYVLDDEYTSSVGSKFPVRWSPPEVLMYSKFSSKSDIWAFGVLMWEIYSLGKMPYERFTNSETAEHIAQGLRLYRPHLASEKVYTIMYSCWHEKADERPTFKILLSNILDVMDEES

[16] = biological target: Serine/threonine-protein kinase ULK3 (Homo sapiens) (UniProt Q6PHR2); experiment: Inhibition of recombinant human full length ULK3 assessed as residual activity at 10 uM using casein as substrate incubated for 40 mins in presence of [gamma33P]ATP by scintillation counting based radiometry assay relative to control
[17] = biological target: Serine/threonine-protein kinase PLK3 (Homo sapiens) (UniProt Q9H4B4); experiment: Inhibition of recombinant human Plk3 (19 to 301 residues) assessed as residual activity at 10 uM using casein as substrate incubated for 40 mins in presence of [gamma33P]ATP by scintillation counting based radiometry assay relative to control
[18] = biological target: Platelet-derived growth factor receptor alpha (Homo sapiens) (UniProt P16234); experiment: Inhibition of human PDGFRalpha (550 to end residues) assessed as residual activity at 10 uM using poly(Glu, Tyr) 4:1 as substrate measured after 40 mins in presence of [gamma33P]ATP by scintillation counting based radiometry assay relative to control
[19] = tested on: Tyrosine-protein kinase ABL1 (Homo sapiens), P00519 [H396P]; experiment: Inhibition of human ABL1 H396P mutant (27 to end residues) assessed as residual activity at 10 uM using EAIYAAPFAKKK as substrate incubated for 40 mins in presence of [gamma-33ATP] by scintillation counting based radiometry assay relative to control
[20] = biological target: Epidermal growth factor receptor (Homo sapiens) (UniProt P00533); experiment: Inhibition of recombinant human EGFR (696 to end residues) assessed as residual activity at 10 uM using poly(Glu, Tyr) 4:1 as substrate at 40 mins in presence of [gamma-33ATP] by scintillation counting based radiometry assay relative to control
[21] = biological target: Inhibitor of nuclear factor kappa-B kinase subunit alpha (Homo sapiens) (UniProt O15111); experiment: Inhibition of full length human IKKalpha assessed as residual activity at 10 uM using peptide as substrate after 40 mins by [gamma-33ATP] radiometric assay relative to control
Sequence of Inhibitor of nuclear factor kappa-B kinase subunit alpha (Homo sapiens) (O15111 whole entry): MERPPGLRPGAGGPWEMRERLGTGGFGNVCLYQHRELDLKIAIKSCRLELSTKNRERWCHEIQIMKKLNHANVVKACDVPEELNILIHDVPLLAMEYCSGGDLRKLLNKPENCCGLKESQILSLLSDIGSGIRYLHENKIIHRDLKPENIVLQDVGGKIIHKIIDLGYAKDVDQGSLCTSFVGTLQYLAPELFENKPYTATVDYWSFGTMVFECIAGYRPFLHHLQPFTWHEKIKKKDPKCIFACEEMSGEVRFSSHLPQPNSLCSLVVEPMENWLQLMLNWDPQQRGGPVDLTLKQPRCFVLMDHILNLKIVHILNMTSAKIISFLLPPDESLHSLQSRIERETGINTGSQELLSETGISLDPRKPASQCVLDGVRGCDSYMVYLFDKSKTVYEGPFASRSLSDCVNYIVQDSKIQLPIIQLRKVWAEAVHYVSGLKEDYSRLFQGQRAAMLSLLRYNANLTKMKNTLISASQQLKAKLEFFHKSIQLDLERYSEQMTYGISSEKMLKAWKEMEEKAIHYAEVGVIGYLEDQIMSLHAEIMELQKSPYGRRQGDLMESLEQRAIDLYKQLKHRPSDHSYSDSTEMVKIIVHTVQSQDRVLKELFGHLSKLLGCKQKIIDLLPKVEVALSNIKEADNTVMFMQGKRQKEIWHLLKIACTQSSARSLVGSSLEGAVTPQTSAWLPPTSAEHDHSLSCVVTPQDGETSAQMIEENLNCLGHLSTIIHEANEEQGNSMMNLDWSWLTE

C[C@@H](c1ccccc1)n1nnc2cnc3ccc(-c4cnc5[nH]ccc5c4)cc3c21
Activity [1]: 80% | Activity [2]: 129% | Activity [3]: 81% | Activity [4]: 50% | Activity [5]: 115% | Activity [6]: 150% | Activity [7]: 98% | Activity [8]: 100% | Activity [9]: 129% | Activity [10]: 61% | Activity [11]: 93% | Activity [12]: 8% | Activity [13]: 46% | Activity [14]: 59% | Activity [15]: 17% | Activity [16]: 94% | Activity [17]: 71% | Activity [18]: 95% | Activity [19]: -1% | Activity [20]: 90% | Activity [21]: 90%
